Patent US10787432B2, “N-[(pyridyloxy)propanyl]benzamides” (Boehringer Ingelheim International GmbH, priority 2016, dated 2020)
Read-outs that look alike come from different tables or passages of the source.

What was measured:
human orexin 2 receptor = molecular target: T1, human orexin 2 receptor (Homo sapiens, UniProt O43614); test: Assay B: In vitro testing of OX2R potency: OX2R IP1 (HTRF, CHO-K1/hOX2 cells, Orexin A as agonist); type: cell-based; conditions: Orexin A 0.5 nM
T1 construct: stably expressing the full-length human orexin 2 receptor; expressed in transfected cells; host or cells: CHO-K1 (CHO-K1/hOX2), co-expressing aequorin
T1 sequence (O43614 1-444): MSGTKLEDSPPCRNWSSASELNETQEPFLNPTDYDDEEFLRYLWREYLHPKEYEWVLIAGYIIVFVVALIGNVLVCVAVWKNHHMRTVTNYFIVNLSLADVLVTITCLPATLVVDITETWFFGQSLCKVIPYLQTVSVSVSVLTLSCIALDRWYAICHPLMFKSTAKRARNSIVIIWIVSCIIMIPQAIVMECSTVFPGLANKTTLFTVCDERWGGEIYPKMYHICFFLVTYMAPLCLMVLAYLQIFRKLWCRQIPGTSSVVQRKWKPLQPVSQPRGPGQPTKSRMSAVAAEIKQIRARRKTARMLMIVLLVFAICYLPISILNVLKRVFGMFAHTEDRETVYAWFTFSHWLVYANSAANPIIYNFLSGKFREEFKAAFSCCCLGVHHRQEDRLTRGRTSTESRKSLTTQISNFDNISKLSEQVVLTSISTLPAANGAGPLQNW
Source text: Activation of the orexin receptors expressed in cell lines results in an increase in intracellular IP3 concentration. IP1, a downstream metabolite of IP3, accumulates in cells following receptor activation and is stable in the presence of LiCl. Using Homogeneous Time-Resolved Fluorescence technology with Lumi4-Tb cryptate (commercially available from Cisbio Bioassay.) and a suitable fluorescence plate reader. […] Chem. Genomics 2009, 3, 22-32. This technique is used to characterize pharmacological modification of the orexin receptors.
B. In Vitro Testing of OX2R Potency: OX2R IP1
IP1 measurements are performed in CHO-K1 cells stably expressing the full-length human orexin 2 receptor and the aequorin photoprotein. Cells are cultivated in Ham's nutrient mixture F12 medium with 10% fetal calf serum, in a 37° C., 95% humidity and 5% CO2 incubator. The CHO-K1/hOX2 cell mass is expanded to larger cell numbers. The cells are obtained as frozen cells in cryo-vials and stored until use at −150° C. The viability of the cells after thawing is >90%. In preparation for the assay, 24 hours before the assay, the cells are thawed at 37° C. and immediately diluted with cell culture medium. After centrifugation, the cell pellet is resuspended in medium and then distributed into the assay plates with a density of 5000 cells/25 μL per well. The plates are incubated for one hour at room temperature to reduce edge effects before they are incubated for 24 hours at 37° C./5% CO2. Compounds are prepared by a 8-point serial dilution in DMSO and a final dilution step into assay buffer (HBSS with 20 mM HEPES, 0.1% BSA and 50 mM LiCl, pH 7.4) to ensure a final DMSO concentration of 1% in the assay.
On the day of the assay, cells in the plate are washed twice with 60 μL assay buffer (20 μL buffer remained in the wells after washing), followed by adding 5 μL per well of compounds diluted in assay buffer. After 15 minutes of incubation at room temperature 5 μL per well of Orexin A peptide (final concentration: 0.5 nM) dissolved in assay buffer is added to the assay plate. The assay plate is incubated for 60 minutes at 37° C. Then 5 μL per well of Anti-IP1-Cryptate Tb solution and 5 μL per well of IP1-d2 dilution are added to all well of the plate and the plate is incubated for a further 60 minutes light protected at room temperature. The emission at 615 nm and 665 nm (Excitation wavelength: 320 nm) are measured using an EnVision reader (PerkinElmer). The ratio between the emission at 665 nm and 615 is calculated by the reader.
8-point four parametric non-linear curve fitting and determination of IC50 values and Hill slopes is performed using a regular analysis software e.g. AssayExplorer (Accelrys). In order to establish an agonist concentration independent parameter, Kb values are calculated using the following equation: IC50/((2+(A/EC50)n)^1/n−1) (with A=concentration agonist, EC50=EC50 agonist, n=Hill slope agonist) (see P. Leff, I. G. Dougall, Trends Pharmacol. Sci. 1993, 14(4), 110-112).
Kb values from Assay A (OX1R) and Assay B (OX2R) can then provide a selectivity ratio which is independent of the agonist (Orexin A) concentration.

[1] = Assay C: Metabolic stability in human liver microsomes (Human MST); type: in vitro ADME; conditions: pooled human liver microsomes, pH 7.6; human liver microsomes 1 mg/mL, compound 1 μM, 37° C., NADPH; read-out: Human MST t1/2
Procedure: C. Assessment of Metabolic Stability in Human Liver Microsomes (Human MST)
The metabolic stability of the compounds according to the invention may be investigated as follows:
The metabolic degradation of the test compound is assayed at 37° C. with pooled human liver microsomes. The final incubation volume of 100 μL per time point contains TRIS buffer pH 7.6 at room temperature (0.1 M), MgCl2 (5 mM), microsomal protein (1 mg/mL) and the test compound at a final concentration of 1 μM. Following a short pre-incubation period at 37° C., the reactions are initiated by addition of beta-nicotinamide adenine dinucleotide phosphate, reduced form (NADPH, 1 mM), and terminated by transferring an aliquot into solvent after different time points. After centrifugation (10000 g, 5 min), an aliquot of the supernatant is assayed by LC-MS/MS for the amount of parent compound. The half-life (t1/2) is determined by the slope of the semi-logarithmic plot of the concentration-time profile.

human Orexin 1 receptor = molecular target: T2, human Orexin 1 receptor (Homo sapiens, UniProt O43613); test: Assay A: In vitro testing of OX1R potency: OX1R IP1 (HTRF, CHO-K1/hOX1 cells, Orexin A as agonist); type: cell-based; conditions: for Kb: read-out: OX1R Kb (Orexin A concentration used)
T2 construct: stably expressing the full-length human Orexin 1 receptor; expressed in transfected cells; host or cells: CHO-K1 (CHO-K1/hOX1), co-expressing aequorin
T2 sequence (O43613 1-425): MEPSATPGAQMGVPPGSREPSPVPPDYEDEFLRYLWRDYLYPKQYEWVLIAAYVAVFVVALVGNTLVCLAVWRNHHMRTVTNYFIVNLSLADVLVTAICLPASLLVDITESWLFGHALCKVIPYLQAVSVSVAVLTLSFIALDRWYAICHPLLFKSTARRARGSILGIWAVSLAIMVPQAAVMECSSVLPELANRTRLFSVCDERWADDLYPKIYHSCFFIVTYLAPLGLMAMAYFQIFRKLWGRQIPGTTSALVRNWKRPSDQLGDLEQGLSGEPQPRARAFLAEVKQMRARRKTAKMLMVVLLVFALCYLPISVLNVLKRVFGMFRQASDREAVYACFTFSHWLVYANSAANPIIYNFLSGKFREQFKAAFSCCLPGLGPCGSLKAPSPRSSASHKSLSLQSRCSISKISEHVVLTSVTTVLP

SMILES	Kb (human orexin 2 receptor)	half-life at 1 μM [1]	OX2R Kb/OX1R Kb (human Orexin 1 receptor; OX1R Kb at 0.5 nM Orexin A)	Kb (human Orexin 1 receptor; Orexin A 0.5 nM)	OX2R Kb/OX1R Kb (human Orexin 1 receptor; OX1R Kb at 50 nM Orexin A)	Kb (human Orexin 1 receptor; Orexin A 50 nM)	OX2R Kb/OX1R Kb (human Orexin 1 receptor; OX1R Kb at 0.5 nM and 50 nM Orexin A)	Kb (human Orexin 1 receptor; Orexin A 0.5 nM and 50 nM)
CC[C@@H](CNc1ccc(Cl)cn1)N(C)C(=O)c1cc(C)ccc1-n1nccn1 [Ex 1 in WO2016/034882, reference compound]	36 nM	5 min						
CC[C@@H](CNc1ccc(C(F)(F)F)cn1)N(C)C(=O)c1cc(Cl)ccc1-n1nccn1 [Ex 42 in WO2016/034882, reference compound]	229 nM	7 min						
CCN(C(=O)c1ccc(F)cc1-n1nccn1)[C@@H](C)COc1ccc(C(F)(F)F)cn1 [Example 1]	58 nM	38 min	171	0.34 nM				
CCN(C(=O)c1cc(F)ccc1-n1nccn1)[C@@H](C)COc1ccc(C(F)(F)F)cn1 [Example 3]	44 nM	62 min			157	0.28 nM		
CCN(C(=O)c1cc(F)c(F)cc1-n1nccn1)[C@@H](C)COc1ccc(C(F)(F)F)cn1 [Example 4]	138 nM	61 min	276	0.5 nM	187	0.74 nM		
CCN(C(=O)c1ccccc1-n1nccn1)[C@@H](C)COc1ccc(C(F)(F)F)cn1 [Example 10]	21 nM	24 min			117	0.18 nM		
CCN(C(=O)c1cc(F)cc(F)c1-n1nccn1)[C@@H](C)COc1ccc(C(F)(F)F)cn1 [Example 13]	92 nM	49 min			511	0.18 nM		
CCN(C(=O)c1ccc(F)cc1-c1nnc(C)o1)[C@@H](C)COc1ccc(C(F)(F)F)cn1 [Example 14]	2070 nM	> 130 min	461	4.5 nM				
CCN(C(=O)c1cc(OC)ccc1-n1nccn1)[C@@H](C)COc1ccc(C(F)(F)F)cn1 [Example 15]	15 nM	16 min			250	0.06 nM		
CCN(C(=O)c1cccc(F)c1-c1nnc(C)o1)[C@@H](C)COc1ccc(C(F)(F)F)cn1 [Example 18]	218 nM	74 min	273	0.8 nM				
CCN(C(=O)c1cccc(C)c1-c1nnc(C)o1)[C@@H](C)COc1ccc(C(F)(F)F)cn1 [Example 20]	35 nM	20 min			292	0.12 nM		
CCN(C(=O)c1ccccc1-c1nnc(C)o1)[C@@H](C)COc1ccc(C(F)(F)F)cn1 [Example 22]	202 nM	84 min	217	0.93 nM	168	1.2 nM		
CCN(C(=O)c1ccc(Cl)cc1-n1nccn1)[C@@H](C)COc1ccc(C(F)(F)F)cn1 [Example 26]	22 nM	15 min			400	0.055 nM		
CCN(C(=O)c1ccc(F)cc1-n1nccn1)[C@@H](C)COc1ccc(Cl)cn1 [Example 28]	86 nM	39 min					51	1.7 nM
CCN(C(=O)c1cc(F)ccc1-n1nccn1)[C@@H](C)COc1ccc(Cl)cn1 [Example 29]	71 nM	55 min	71	1 nM	81	0.88 nM		
CCN(C(=O)c1cc(F)c(F)cc1-n1nccn1)[C@@H](C)COc1ccc(Cl)cn1 [Example 30]	160 nM	52 min	70	2.3 nM				
CCN(C(=O)c1cc(F)cc(F)c1-n1nccn1)[C@@H](C)COc1ccc(Cl)cn1 [Example 32]	117 nM	46 min	106	1.1 nM	143	0.82 nM		
CCN(C(=O)c1cc(OC)ccc1-n1nccn1)[C@@H](C)COc1ccc(Cl)cn1 [Example 33]	33 nM	20 min			236	0.14 nM		
CCN(C(=O)c1cccc(F)c1-c1nnc(C)o1)[C@@H](C)COc1ccc(Cl)cn1 [Example 36]	542 nM	72 min	139	3.9 nM				
CCN(C(=O)c1ccc(C)cc1-c1nnc(C)o1)[C@@H](C)COc1ccc(Cl)cn1 [Example 38]	877 nM	11 min	313	2.8 nM				
CCN(C(=O)c1cccc(C)c1-c1nnc(C)o1)[C@@H](C)COc1ccc(Cl)cn1 [Example 39]	82 nM	23 min	93	0.88 nM	152	0.54 nM		
CCN(C(=O)c1ccc(Cl)cc1-n1nccn1)[C@@H](C)COc1ccc(Cl)cn1 [Example 45]	21 nM	18 min			59	0.354 nM		
CCN(C(=O)c1ccccc1-n1nccn1)[C@@H](C)COc1ccc(Cl)cn1 [Example 46]	37 nM	35 min			56	0.66 nM		
CCN(C(=O)c1ccccc1-n1nccn1)[C@@H](C)COc1ncc(C(F)(F)F)cc1F [Example 47]	87 nM	21 min	130	0.67 nM	272	0.32 nM		
